Reference: paper PMC10977697 (PLOS ONE, 2024)
Like-named read-outs stand apart in the source and are kept apart here. Where a SMILES comes first, the peptide text is derived from it. Bridges are numbered along the chain shown (N, C = ends). Where no end group is shown, it is not given here.

What was measured:
HtrA1 FL = molecular target: T1, HtrA1 FL (Homo sapiens, UniProt Q92743); assay type: binding; settings: read-out: Kd(μM) SPR
T1 construct: HtrA1 (Q23-P480, 5654, Tni Baculovirus); made in house; host or cells: Trichoplusia ni (Tni) cells, baculovirus

HtrA1 = assay type: binding, human; settings: ratio of signal for target protein over BSA background
[1] = molecular target: T2, Notch2Long (Notch2 EGF6-EGF12) (Homo sapiens, UniProt Q04721); test: SPR binding of synthetic DCPs to Notch2Long; settings: Biacore S200, 25°C, 50 μL/min; synthetic in vitro folded peptide, 3-fold dilution from 100 μM; biotinylated N2L on chip SA; steady state fitting; at least three independent experiments; n/d = no binding
T2 construct: Biotinylated N2L protein (D219–E418, made in-house); His tag (cleaved yes); made in house; host or cells: CHO
T2 sequence (Q04721 219-418): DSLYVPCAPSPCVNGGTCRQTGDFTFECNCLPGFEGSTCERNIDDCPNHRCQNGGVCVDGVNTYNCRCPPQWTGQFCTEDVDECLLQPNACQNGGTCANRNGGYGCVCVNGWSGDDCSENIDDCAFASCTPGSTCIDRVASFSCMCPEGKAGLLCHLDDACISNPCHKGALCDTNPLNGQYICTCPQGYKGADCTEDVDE
Description: (§1) All binding experiments were performed using a Biacore S200 instrument (GE Healthcare) at 25°C at a flow rate of 50 μL/min. The kinetics and affinity measurements were carried out using either single-cycle or multi-cycle kinetics (SCK or MCK), solvent corrected and referenced by subtracting the signal to the blank flow cell. Binding affinity and kinetic parameters (association and dissociation rate constants, and dissociation equilibrium constant) were calculated with the Biacore S200 Evaluation Software (version 1.1.1, Cytiva) using either a 1:1 binding model or a steady-state equilibrium model (according to the manufacturer’s instructions).
(§2) Biotinylated N2L protein (D219–E418, made in-house) and NRR protein (A1423–Q1677, made in-house) were captured at around 500, 1000 and 1500 RU on Sensor Chip SA (Cytiva).

[2] = molecular target: T3, Notch2NRR (Notch2 NRR domain) (Homo sapiens, UniProt Q04721); test: SPR binding of synthetic DCPs to Notch2NRR; settings: Biacore S200, 25°C; synthetic folded peptide, 3-fold dilution from 100 μM; biotinylated NRR on chip SA; steady state fitting
T3 construct: NRR protein (A1423–Q1677, made in-house); His tag (cleaved yes); made in house; host or cells: CHO
T3 sequence (Q04721 1423-1677): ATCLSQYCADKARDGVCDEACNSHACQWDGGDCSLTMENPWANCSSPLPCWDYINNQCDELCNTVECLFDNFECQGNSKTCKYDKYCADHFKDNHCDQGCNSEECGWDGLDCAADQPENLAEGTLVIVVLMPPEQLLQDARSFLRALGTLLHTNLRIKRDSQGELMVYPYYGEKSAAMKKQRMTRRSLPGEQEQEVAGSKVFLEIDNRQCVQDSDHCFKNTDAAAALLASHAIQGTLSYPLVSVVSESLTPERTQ
Description: as §1, §2

Notch2NRR = test: Spot phage ELISA, Notch2NRR; assay type: binding, human; settings: ratio of signal for target protein over BSA background
BamA-amphipol = test: Spot phage ELISA, BamA-amphipol; assay type: binding, bacterial

T1 sequence (Q92743 23-480): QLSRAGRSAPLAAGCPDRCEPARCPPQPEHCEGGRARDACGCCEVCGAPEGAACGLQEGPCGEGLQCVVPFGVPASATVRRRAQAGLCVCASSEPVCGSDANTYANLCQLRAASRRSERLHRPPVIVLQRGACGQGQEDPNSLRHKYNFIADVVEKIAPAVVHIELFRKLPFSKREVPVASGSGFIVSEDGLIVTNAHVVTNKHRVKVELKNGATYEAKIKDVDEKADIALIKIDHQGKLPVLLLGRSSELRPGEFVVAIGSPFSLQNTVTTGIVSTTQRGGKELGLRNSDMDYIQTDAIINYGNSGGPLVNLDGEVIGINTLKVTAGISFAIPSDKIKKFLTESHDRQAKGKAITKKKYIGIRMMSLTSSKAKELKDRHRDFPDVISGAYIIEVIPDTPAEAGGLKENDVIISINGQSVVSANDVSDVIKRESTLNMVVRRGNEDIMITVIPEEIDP

## CC[C@H](C)[C@@H]1NC(=O)[C@H](Cc2ccccc2)NC(=O)[C@H](Cc2ccc(O)cc2)NC(=O)[C@H](C(C)C)NC(=O)[C@H](CCSC)NC(=O)[C@H](C(C)C)NC(=O)[C@@H]2CSSC[C@H](NC(=O)[C@H](CC(=O)O)NC(=O)[C@H](Cc3ccccc3)NC(=O)[C@H](C)N)C(=O)N[C@@H](CC(C)C)C(=O)NCC(=O)N[C@@H](CCC(N)=O)C(=O)N[C@H]3CSSC[C@H](NC(=O)[C@H](Cc4ccc(O)cc4)NC(=O)[C@@H]4CCCN4C(=O)[C@H](CCCCN)NC(=O)[C@H]([C@@H](C)O)NC(=O)[C@H](CCSC)NC(=O)[C@H](Cc4c[nH]cn4)NC1=O)C(=O)N[C@@H](CC(N)=O)C(=O)N[C@@H](CO)C(=O)N[C@@H](CO)C(=O)N[C@H](C(=O)N[C@H](C(=O)N[C@@H](CCCNC(=N)N)C(=O)O)[C@@H](C)O)CSSC[C@H](NC(=O)[C@H](CCCNC(=N)N)NC(=O)CNC3=O)C(=O)N[C@@H](CC(=O)O)C(=O)N[C@@H](Cc1ccccc1)C(=O)N[C@@H](Cc1c[nH]cn1)C(=O)N[C@@H](CCCCN)C(=O)N[C@@H](CC(C)C)C(=O)N[C@@H](CCC(N)=O)C(=O)N2 [HtrA1_AVR61] (HELM PEPTIDE1{A.F.D.C.L.G.Q.C.G.R.C.D.F.H.K.L.Q.C.V.M.V.Y.F.I.H.M.T.K.P.Y.C.N.S.S.C.T.R}$PEPTIDE1,PEPTIDE1,4:R3-18:R3|PEPTIDE1,PEPTIDE1,8:R3-31:R3|PEPTIDE1,PEPTIDE1,11:R3-35:R3$$$V2.0; N-terminus and C-terminus assumed)
HtrA1 FL; Biacore S200, 25°C, biotinylated HtrA1 FL on chip SA, 10 mM HEPES (8.0), 200mM NaCl, 0.25% CHAPS, 5% DMSO, steady state fitting, n/d = no binding
  Kd: > 20 µM
HtrA1
  S/N: 24.4

## CC[C@H](C)[C@@H]1NC(=O)[C@@H](NC(=O)CN)CSSC[C@@H]2NC(=O)CNC(=O)[C@H](C)NC(=O)[C@H](CCC(=O)O)NC(=O)[C@@H]3CSSC[C@@H](C(=O)NCC(=O)O)NC(=O)[C@H](CCC(N)=O)NC(=O)[C@H]([C@@H](C)CC)NC(=O)[C@H](Cc4c[nH]c5ccccc45)NC(=O)[C@H](C(C)C)NC(=O)[C@H](CCC(=O)O)NC(=O)[C@H](CSSC[C@H](NC(=O)[C@H](Cc4c[nH]c5ccccc45)NC(=O)[C@H](CC(C)C)NC(=O)[C@H](Cc4c[nH]cn4)NC(=O)[C@H](CO)NC(=O)[C@H](CCCCN)NC1=O)C(=O)N1CCC[C@H]1C(=O)N[C@@H](CCCCN)C(=O)N[C@@H]([C@@H](C)O)C(=O)N[C@@H](CO)C(=O)N[C@@H](CC(=O)O)C(=O)N3)NC(=O)[C@H]([C@@H](C)CC)NC2=O [N2L.EET31.43.24] (HELM PEPTIDE1{G.C.I.K.S.H.L.W.C.P.K.T.S.D.C.E.A.G.C.I.C.E.V.W.I.Q.C.G}$PEPTIDE1,PEPTIDE1,2:R3-19:R3|PEPTIDE1,PEPTIDE1,9:R3-21:R3|PEPTIDE1,PEPTIDE1,15:R3-27:R3$$$V2.0)
[1]
  Kd: 3.5 µM

## CC[C@H](C)[C@@H]1NC(=O)[C@@H](NC(=O)CN)CSSC[C@@H]2NC(=O)CNC(=O)[C@H](C)NC(=O)[C@H](CCC(=O)O)NC(=O)[C@@H]3CSSC[C@@H](C(=O)NCC(=O)O)NC(=O)[C@H](CCC(N)=O)NC(=O)[C@H]([C@@H](C)CC)NC(=O)[C@H](Cc4c[nH]c5ccccc45)NC(=O)[C@H]([C@@H](C)CC)NC(=O)[C@H](CCC(=O)O)NC(=O)[C@H](CSSC[C@H](NC(=O)[C@H](Cc4c[nH]c5ccccc45)NC(=O)[C@H](C(C)C)NC(=O)[C@H](Cc4c[nH]cn4)NC(=O)[C@H](CO)NC(=O)[C@H](CCCNC(=N)N)NC1=O)C(=O)N[C@@H](CCCCN)C(=O)N[C@@H](CCC(N)=O)C(=O)N[C@@H](CC(=O)O)C(=O)N[C@@H](CO)C(=O)N[C@@H](CC(=O)O)C(=O)N3)NC(=O)[C@H]([C@@H](C)CC)NC2=O [N2L.EET31.43.43] (HELM PEPTIDE1{G.C.I.R.S.H.V.W.C.K.Q.D.S.D.C.E.A.G.C.I.C.E.I.W.I.Q.C.G}$PEPTIDE1,PEPTIDE1,2:R3-19:R3|PEPTIDE1,PEPTIDE1,9:R3-21:R3|PEPTIDE1,PEPTIDE1,15:R3-27:R3$$$V2.0)
[1]
  Kd: 3.5 µM

## CC(C)C[C@@H]1NC(=O)[C@@H](NC(=O)[C@H](CC(=O)O)NC(=O)[C@H](Cc2ccccc2)NC(=O)[C@H](C)N)CSSC[C@@H]2NC(=O)[C@H](CCC(N)=O)NC(=O)[C@H](CC(C)C)NC(=O)[C@H](CCCCN)NC(=O)[C@H](Cc3c[nH]cn3)NC(=O)[C@H](Cc3ccccc3)NC(=O)[C@H](CC(=O)O)NC(=O)[C@@H]3CSSC[C@@H](C(=O)N[C@H](C(=O)N[C@@H](CCCNC(=N)N)C(=O)O)[C@@H](C)O)NC(=O)[C@H](CO)NC(=O)[C@H](CO)NC(=O)[C@H](CC(N)=O)NC(=O)[C@H](CSSC[C@H](NC(=O)[C@H](CCC(N)=O)NC(=O)CNC1=O)C(=O)NCC(=O)N[C@@H](CCCNC(=N)N)C(=O)N3)NC(=O)[C@H](Cc1ccc(O)cc1)NC(=O)[C@H](CCC(N)=O)NC(=O)[C@H](CCCCN)NC(=O)[C@H](Cc1ccc(O)cc1)NC(=O)[C@H]([C@@H](C)O)NC(=O)[C@H](Cc1c[nH]c3ccccc13)NC(=O)[C@H](CO)NC(=O)[C@H](Cc1ccc(O)cc1)NC(=O)[C@@H]1CCCN1C(=O)[C@H](C(C)C)NC2=O [N2N-AVR-19] (HELM PEPTIDE1{A.F.D.C.L.G.Q.C.G.R.C.D.F.H.K.L.Q.C.V.P.Y.S.W.T.Y.K.Q.Y.C.N.S.S.C.T.R}$PEPTIDE1,PEPTIDE1,4:R3-18:R3|PEPTIDE1,PEPTIDE1,8:R3-29:R3|PEPTIDE1,PEPTIDE1,11:R3-33:R3$$$V2.0; N-terminus and C-terminus assumed)
[2]
  Kd: 9.4 µM
Notch2NRR
  s/n ratio: 35.7

## CC(C)C[C@@H]1NC(=O)[C@@H](NC(=O)[C@H](CC(=O)O)NC(=O)[C@H](Cc2ccccc2)NC(=O)[C@H](C)N)CSSC[C@@H]2NC(=O)[C@H](CCC(N)=O)NC(=O)[C@H](CC(C)C)NC(=O)[C@H](CCCCN)NC(=O)[C@H](Cc3c[nH]cn3)NC(=O)[C@H](Cc3ccccc3)NC(=O)[C@H](CC(=O)O)NC(=O)[C@@H]3CSSC[C@@H](C(=O)N[C@H](C(=O)N[C@@H](CCCNC(=N)N)C(=O)O)[C@@H](C)O)NC(=O)[C@H](CO)NC(=O)[C@H](CO)NC(=O)[C@H](CC(N)=O)NC(=O)[C@H](CSSC[C@H](NC(=O)[C@H](CCC(N)=O)NC(=O)CNC1=O)C(=O)NCC(=O)N[C@@H](CCCNC(=N)N)C(=O)N3)NC(=O)[C@H](Cc1ccc(O)cc1)NC(=O)[C@@H]1CCCN1C(=O)[C@H](CO)NC(=O)[C@H](Cc1c[nH]cn1)NC(=O)[C@H](CCCNC(=N)N)NC(=O)[C@H](CC(N)=O)NC(=O)[C@H](CO)NC(=O)[C@H](Cc1c[nH]c3ccccc13)NC(=O)[C@H](C(C)C)NC2=O [N2N-AVR-n6] (HELM PEPTIDE1{A.F.D.C.L.G.Q.C.G.R.C.D.F.H.K.L.Q.C.V.W.S.N.R.H.S.P.Y.C.N.S.S.C.T.R}$PEPTIDE1,PEPTIDE1,4:R3-18:R3|PEPTIDE1,PEPTIDE1,8:R3-28:R3|PEPTIDE1,PEPTIDE1,11:R3-32:R3$$$V2.0; N-terminus and C-terminus assumed)
[2]
  Kd: 0.8 µM
Notch2NRR
  s/n ratio: 39.3

## GCTMWQRLQAKYCKQDSDCLAGCVCHAREKCG (also: bicyclic or more (positions not given here)) [BamA-amphipol EET I-II 1]
BamA-amphipol; ratio of signal for target protein over BSA background
  S/N: 8.1
BamA-amphipol; spot phage ELISA signal, DCP displayed on M13 p8
  ELISA: 1.50

## GPTQSFWGWCGGIGYVGGRYCSGTTCQRPDAHWSQCLPGAS (disulfide 10-26, 21-36 (inferred)) [HtrA1_CBDamy86]
HtrA1 FL
  Kd: 158 µM
HtrA1
  S/N: 22.8
